# From ChEMBL document CHEMBL1201862, “PubChem BioAssay data set” (2004)
#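 Each compound was tested at five concentrations against cells in 96-well plates for 48 hours. The concentration for 50% growth inhibition is given as GI50.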 The source made the active and inactive calls. Cut-off read from the data, not from the text of the source: active = GI50 up to about 1.1 µM and inactive = higher.
# Experiments:
# Assay in all cases: NCI tumour cell line growth inhibition, 48 h
# 786-0 = system: 786-0
# A498 = system: A498
# A549 = system: A549
# ACHN = system: ACHN
# CCRF-CEM = system: CCRF-CEM
# COLO 205 = system: COLO 205
# DLD-1 = system: DLD-1
# DMS-114 = system: DMS-114
# DMS-273 = system: DMS-273
# EKVX = system: EKVX
# HCC 2998 = system: HCC 2998
# HCT-116 = system: HCT-116
# HCT-15 = system: HCT-15
# HOP-18 = system: HOP-18
# HOP-62 = system: HOP-62
# HOP-92 = system: HOP-92
# HT-29 = system: HT-29
# IGROV-1 = system: IGROV-1
# K562 = system: K562
# KM-20L2 = system: KM-20L2
# KM12 = system: KM12
# LOX IMVI = system: LOX IMVI
# LXFL 529 = system: LXFL 529
# M14 = system: M14
# M19-MEL = system: M19-MEL
# MOLT-4 = system: MOLT-4
# Malme-3M = system: Malme-3M
# NCI-H226 = system: NCI-H226
# NCI-H23 = system: NCI-H23
# NCI-H460 = system: NCI-H460
# NCI-H522 = system: NCI-H522
# OVCAR-3 = system: OVCAR-3
# OVCAR-4 = system: OVCAR-4
# OVCAR-5 = system: OVCAR-5
# OVCAR-8 = system: OVCAR-8
# RPMI-8226 = system: RPMI-8226
# RXF 393 = system: RXF 393
# SF-268 = system: SF-268
# SF-295 = system: SF-295
# SF-539 = system: SF-539
# SK-MEL-28 = system: SK-MEL-28
# SK-MEL-2 = system: SK-MEL-2
# SK-MEL-5 = system: SK-MEL-5
# SK-OV-3 = system: SK-OV-3
# SN12C = system: SN12C
# SNB-19 = system: SNB-19
# SNB-75 = system: SNB-75
# SNB-78 = system: SNB-78
# SR = system: SR
# SW-620 = system: SW-620
# TK-10 = system: TK-10
# U-251 = system: U-251
# UACC-257 = system: UACC-257
# UACC-62 = system: UACC-62
# UO-31 = system: UO-31
# BT-549 = system: BT-549
# CAKI-1 = system: CAKI-1
# DU-145 = system: DU-145
# HL-60 = system: HL-60
# Hs-578T = system: Hs-578T
# MCF7 = system: MCF7
# MDA-MB-231 = system: MDA-MB-231
# MDA-MB-435 = system: MDA-MB-435
# MDA-N = system: MDA-N
# NCI/ADR-RES = system: NCI/ADR-RES
# PC-3 = system: PC-3
# T47D = system: T47D
compound,measurement,setting,value
COc1cccc(C=O)c1[O-].COc1cccc(C=O)c1[O-].[Zn+2],GI50,786-0,49 µM (inactive)
same,GI50,A498,> 100 µM (inactive)
same,GI50,A549,> 100 µM (inactive)
same,GI50,ACHN,44.1 µM (inactive)
same,GI50,CCRF-CEM,28.9 µM (inactive)
same,GI50,COLO 205,> 100 µM (inactive)
same,GI50,DLD-1,47 µM (inactive)
same,GI50,DMS-114,51.6 µM (inactive)
same,GI50,DMS-273,60.5 µM (inactive)
same,GI50,EKVX,61.5 µM (inactive)
same,GI50,HCC 2998,> 100 µM (inactive)
same,GI50,HCT-116,44.3 µM (inactive)
same,GI50,HCT-15,38 µM
same,GI50,HOP-18,40.9 µM (inactive)
same,GI50,HOP-62,46.9 µM (inactive)
same,GI50,HOP-92,21.9 µM (inactive)
same,GI50,HT-29,97.7 µM (inactive)
same,GI50,IGROV-1,75.2 µM (inactive)
same,GI50,K562,55.3 µM (inactive)
same,GI50,KM-20L2,> 100 µM (inactive)
same,GI50,KM12,> 100 µM (inactive)
same,GI50,LOX IMVI,76.9 µM (inactive)
same,GI50,LXFL 529,45.3 µM (inactive)
same,GI50,M14,36.3 µM (inactive)
same,GI50,M19-MEL,31.8 µM (inactive)
same,GI50,MOLT-4,33.8 µM (inactive)
same,GI50,Malme-3M,69 µM (inactive)
same,GI50,NCI-H226,> 100 µM (inactive)
same,GI50,NCI-H23,79.3 µM (inactive)
same,GI50,NCI-H460,42.1 µM (inactive)
same,GI50,NCI-H522,> 100 µM (inactive)
same,GI50,OVCAR-3,32.8 µM (inactive)
same,GI50,OVCAR-4,57.5 µM (inactive)
same,GI50,OVCAR-5,53.7 µM (inactive)
same,GI50,OVCAR-8,43.8 µM (inactive)
same,GI50,RPMI-8226,49.1 µM (inactive)
same,GI50,RXF 393,> 100 µM (inactive)
same,GI50,SF-268,55.7 µM (inactive)
same,GI50,SF-295,23.3 µM (inactive)
same,GI50,SF-539,45.2 µM (inactive)
same,GI50,SK-MEL-28,76.7 µM (inactive)
same,GI50,SK-MEL-2,48.9 µM (inactive)
same,GI50,SK-MEL-5,35.2 µM (inactive)
same,GI50,SK-OV-3,36.6 µM (inactive)
same,GI50,SN12C,39.7 µM (inactive)
same,GI50,SNB-19,> 100 µM (inactive)
same,GI50,SNB-75,42 µM (inactive)
same,GI50,SNB-78,> 100 µM (inactive)
same,GI50,SR,35.6 µM (inactive)
same,GI50,SW-620,56.1 µM (inactive)
same,GI50,TK-10,> 100 µM (inactive)
same,GI50,U-251,38.4 µM (inactive)
same,GI50,UACC-257,33.9 µM (inactive)
same,GI50,UACC-62,46.2 µM (inactive)
same,GI50,UO-31,28.2 µM (inactive)
Cc1ccc2c(c1)CN(C(=O)CCC(=O)OCc1ccccc1)c1ccc(C)cc1CN2C(=O)CCC(=O)OCc1ccccc1,GI50,786-0,> 90.8 µM (inactive)
same,GI50,A498,> 100 µM (inactive)
same,GI50,A549,> 100 µM (inactive)
same,GI50,ACHN,> 100 µM (inactive)
same,GI50,BT-549,> 100 µM (inactive)
same,GI50,CAKI-1,> 100 µM (inactive)
same,GI50,CCRF-CEM,> 100 µM (inactive)
same,GI50,COLO 205,> 100 µM (inactive)
same,GI50,DLD-1,> 100 µM (inactive)
same,GI50,DMS-114,> 100 µM (inactive)
same,GI50,DMS-273,> 100 µM (inactive)
same,GI50,DU-145,> 100 µM (inactive)
same,GI50,EKVX,> 100 µM (inactive)
same,GI50,HCC 2998,> 100 µM (inactive)
same,GI50,HCT-116,> 100 µM (inactive)
same,GI50,HCT-15,> 100 µM
same,GI50,HL-60,> 100 µM (inactive)
same,GI50,HOP-18,> 100 µM (inactive)
same,GI50,HOP-62,> 78 µM (inactive)
same,GI50,HOP-92,82.2 µM (inactive)
same,GI50,HT-29,> 100 µM (inactive)
same,GI50,Hs-578T,40 µM (inactive)
same,GI50,IGROV-1,> 100 µM (inactive)
same,GI50,K562,> 100 µM (inactive)
same,GI50,KM-20L2,> 100 µM (inactive)
same,GI50,KM12,99.3 µM (inactive)
same,GI50,LOX IMVI,> 100 µM (inactive)
same,GI50,LXFL 529,> 100 µM (inactive)
same,GI50,M14,> 100 µM (inactive)
same,GI50,M19-MEL,> 100 µM (inactive)
same,GI50,MCF7,9.25 µM (inactive)
same,GI50,MDA-MB-231,> 100 µM (inactive)
same,GI50,MDA-MB-435,> 100 µM (inactive)
same,GI50,MDA-N,> 100 µM (inactive)
same,GI50,MOLT-4,> 100 µM (inactive)
same,GI50,Malme-3M,> 100 µM (inactive)
same,GI50,NCI-H226,> 100 µM (inactive)
same,GI50,NCI-H23,> 100 µM (inactive)
same,GI50,NCI-H460,> 100 µM (inactive)
same,GI50,NCI-H522,> 100 µM (inactive)
same,GI50,NCI/ADR-RES,> 100 µM (inactive)
same,GI50,OVCAR-3,> 100 µM (inactive)
same,GI50,OVCAR-4,> 100 µM (inactive)
same,GI50,OVCAR-5,> 100 µM (inactive)
same,GI50,OVCAR-8,> 100 µM (inactive)
same,GI50,PC-3,> 100 µM (inactive)
same,GI50,RPMI-8226,> 100 µM (inactive)
same,GI50,RXF 393,> 100 µM (inactive)
same,GI50,SF-268,> 100 µM (inactive)
same,GI50,SF-295,98.6 µM (inactive)
same,GI50,SF-539,88.3 µM (inactive)
same,GI50,SK-MEL-28,> 100 µM (inactive)
same,GI50,SK-MEL-2,> 100 µM (inactive)
same,GI50,SK-MEL-5,> 100 µM (inactive)
same,GI50,SK-OV-3,> 100 µM (inactive)
same,GI50,SN12C,> 100 µM (inactive)
same,GI50,SNB-19,> 100 µM (inactive)
same,GI50,SNB-75,26.6 µM (inactive)
same,GI50,SNB-78,> 100 µM (inactive)
same,GI50,SR,> 100 µM (inactive)
same,GI50,SW-620,> 100 µM (inactive)
same,GI50,T47D,> 100 µM (inactive)
same,GI50,TK-10,> 100 µM (inactive)
same,GI50,U-251,> 100 µM (inactive)
same,GI50,UACC-257,> 100 µM (inactive)
same,GI50,UACC-62,> 100 µM (inactive)
